Assay results as given in US20140248292A1, “COMPOSITIONS AND METHODS FOR TREATING CANCER” (priority 2013, published 2014).

How the values were obtained:
[1] = system: PMP-2 model; experiment: In vivo tumor growth, orthotopic PMP-2 model, single injection
[2] = system: PMP-1 model; experiment: In vivo tumor growth, orthotopic PMP-1 model, single i.p. injection; conditions: both tested doses (2.5 and 5 mg/kg i.p.)
[3] = system: PMCA-1 model; experiment: In vivo tumor growth, orthotopic PMCA-1 model, single i.p. injection; conditions: 5 mg/kg vs 2.5 mg/kg i.p.
[4] = system: orthotopic models of mucinous peritoneal surface malignancies; experiment: In vivo tumor growth, orthotopic models of mucinous peritoneal surface malignancies (model not singled out); conditions: all models; 10 mg/kg i.p.
[5] = system: 2774 ovarian peritoneal carcinomatosis; experiment: 2774 ovarian peritoneal carcinomatosis mouse model; format: in vivo; conditions: 2774 model; treatment initiated on day 2
From the text: The therapeutic potential of intraperitoneal administration of MOC31PE was then investigated in two experimental mouse models based on the ovarian cancer cell lines B76 (FIG. 15) and 2774 (FIG. 16). The animals were divided into three groups. Day 1 the animals were intraperitoneal injected with B76 cancer cell to mimic the situation in patients after cytoreductive surgery, were non-visible cancer cells are still left. MOC31PE treatment was initiated the day after (Day 2) or on day 8, as indicated by giving either MOC31PE 50 μg/kg intraperitoneal injection (i.p.) or 32 μg/kg intravenous injection (i.v.). […] Disease progression, as increase of abdominal size and other signs of symptoms, were measured twice weekly. Body weight was recorded throughout the experiments. Survival as a function of treatment was analysed by Kaplan-Meier plots.

[6] = system: mucinous tumor tissue (PMP-2, PMCA-2, PMP-3, PMP-6); experiment: Ex vivo PARP cleavage, Western immunoblot; format: cell-based, human; conditions: 24 h, PMP-2 xenograft tissue and both patient samples
Protocol: The mucinous cell suspension was seeded in 48-well plates (500 μl/well). […] Thereafter, the cells were lysed by using an SDS boiling method as described previously (Andersson2009). In brief, cell pellets were resuspended in lysis buffer (2% SDS, 1 mM Na3VO4, and 10 mM Tris-Cl (pH 7.6)), which was held at 100° C. when added, and the lysates were boiled for 5 min. After six passages through a 20G syringe on ice, the lysates were cleared by centrifugation. Protein concentrations were then determined using the BCA (bicinchoninic acid) protein assay (Pierce, Rockford, Ill.). The lysates were snap frozen in liquid N2 and kept at −70° C. A portion (15 μg) of each protein lysate was fractionated by 4-12% NuPAGE Bis-Tris gel electrophoresis (Invitrogen, Carlsbad, Calif.), and subsequently transferred by electroblotting to Immobilon membranes (Millipore, Bedford, Mass.). The filters were probed with an anti-PARP antibody (Roche Diagnostics, Mannheim, Germany), anti-EpCAM (MOC31, IQ Corporation, Groningen, the Netherlands) or with anti-alpha tubulin (Calbiochem, La Jolla, Calif.). Immune complexes were detected with an appropriate HRP-coupled secondary antibody. Peroxidase activity was visualized with […] (Amersham Pharmacia Biotech, Buckinghamshire, UK). The western blots were probed with anti-α-tubulin antibody to confirm equal loading and transfer of samples.

## CO[C@@]12[C@H](COC(N)=O)C3=C(C(=O)C(C)=C(N)C3=O)N1C[C@@H]1N[C@@H]12 [Mitomycin C, mitomycin C]
[1]; all tested doses, single i.p.
  inhibition of tumor growth: substantial inhibition of tumor growth
[1]; both tested doses (2.5 and 5 mg/kg i.p.)
  tumor growth within the observation period: almost completely inhibited tumor growth
[2]
  tumor growth within the observation period: almost completely inhibited tumor growth
[3]
  efficacy, comparison of doses: 5 mg/kg was more efficacious than 2.5 mg/kg

## O=C1[O][Pt]2([NH][C@@H]3CCCC[C@H]3[NH]2)[O]C1=O [Oxaliplatin, oxaliplatin]
[4]
  growth inhibition (growth indices) compared to vehicle-treated animals: only slight reduction of growth indices

## CC(=O)O[C@H]1C(=O)[C@@]2(C)[C@H]([C@H](OC(=O)c3ccccc3)[C@]3(O)C[C@H](OC(=O)[C@H](O)[C@@H](NC(=O)c4ccccc4)c4ccccc4)C(C)=C1C3(C)C)[C@]1(OC(C)=O)CO[C@@H]1C[C@@H]2O [Ptx, Paclitaxel]
[5]
  survival / disease progression, combinatorial treatment experiment: significant effect on disease progression

## pseudomonas exotoxin A [PE toxin]
[6]
  PARP cleavage / PARP inactivation (Western immunoblot): No PARP inactivation was evident
